Measurements from patent US8546375B2, “(3-(4-(aminomethyl)phenoxy or phenylthio)azetidin-1-yl)(5-phenyl-1,3,4-oxadiazol-2-yl)methanone compounds” (AstraZeneca AB, priority 2010, dated 2013).
Structures can show the parent of a compound that is named as a salt.

biological target: T1, Melanin Concentrating Hormone Receptor 1 (MCHR1) (Homo sapiens, UniProt Q99705); assay: MCHR1 Receptor Activation Assay (GTPγ^35S); format: biochemical; settings: read-out: GTPγ^35S IC50
T1 construct: expressed in transfected cells
T1 sequence (Q99705 whole entry): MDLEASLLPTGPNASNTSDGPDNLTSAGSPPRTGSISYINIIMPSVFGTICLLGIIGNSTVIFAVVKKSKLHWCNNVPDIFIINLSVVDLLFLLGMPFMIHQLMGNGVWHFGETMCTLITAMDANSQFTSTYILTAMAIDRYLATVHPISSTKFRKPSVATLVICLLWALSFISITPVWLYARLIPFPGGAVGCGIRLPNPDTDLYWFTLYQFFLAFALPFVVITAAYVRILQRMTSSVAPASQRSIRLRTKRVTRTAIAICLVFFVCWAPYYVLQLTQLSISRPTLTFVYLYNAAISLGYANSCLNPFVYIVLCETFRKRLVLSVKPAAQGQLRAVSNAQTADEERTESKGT

| IC50 [nM] | SMILES |
| --- | --- |
| 19 | CN(C)Cc1ccc(OC2CN(C(=O)c3nnc(-c4ccc(C(F)(F)F)cc4)o3)C2)cc1 [Example 35, (3-(4-((dimethylamino)methyl)phenoxy)azetidin-1-yl)(5-(4-(trifluoromethyl)phenyl)-1,3,4-oxadiazol-2-yl)methanone] |
| 13 | CN(C)Cc1ccc(OC2CN(C(=O)c3nnc(-c4ccc(Cl)cc4)o3)C2)cc1 [Example 36, (5-(4-Chlorophenyl)-1,3,4-oxadiazol-2-yl)(3-(4-((dimethylamino)methyl)phenoxy)azetidin-1-yl)methanone] |
| 17 | CN(C)Cc1ccc(OC2CN(C(=O)c3nnc(-c4ccc(OC(F)F)cc4)o3)C2)cc1 [Example 37, (5-(4-(Difluoromethoxy)phenyl)-1,3,4-oxadiazol-2-yl)(3-(4-((dimethylamino)methyl)phenoxy)azetidin-1-yl)methanone] |
| 27 | COc1ccc(-c2nnc(C(=O)N3CC(Oc4ccc(CN(C)C)cc4)C3)o2)cc1 [Example 38, (3-(4-((Dimethylamino)methyl)phenoxy)azetidin-1-yl)(5-(4-methoxyphenyl)-1,3,4-oxadiazol-2-yl)methanone] |
| 49 | CN(C)Cc1ccc(OC2CN(C(=O)c3nnc(-c4ccccc4)o3)C2)c(F)c1F [Example 39, (3-(4-((Dimethylamino)methyl)-2,3-difluorophenoxy)azetidin-1-yl)(5-phenyl-1,3,4-oxadiazol-2-yl)methanone] |
| 27 | COc1ccc(-c2nnc(C(=O)N3CC(Oc4ccc(CN(C)C)c(F)c4F)C3)o2)cc1 [Example 40, (3-(4-((Dimethylamino)methyl)-2,3-difluorophenoxy)azetidin-1-yl)(5-(4-methoxyphenyl)-1,3,4-oxadiazol-2-yl)methanone] |
| 25 | COc1ccc(-c2nnc(C(=O)N3CC(Oc4ccc(CN5CCC5)cc4)C3)o2)cc1 [Example 41, (3-(4-(Azetidin-1-ylmethyl)phenoxy)azetidin-1-yl)(5-(4-methoxyphenyl)-1,3,4-oxadiazol-2-yl)methanone] |
| 26 | O=C(c1nnc(-c2ccccc2)o1)N1CC(Oc2ccc(CN3CCC3)cc2)C1 [Example 42, (3-(4-(azetidin-1-ylmethyl)phenoxy)azetidin-1-yl)(5-phenyl-1,3,4-oxadiazol-2-yl)methanone] |
| 11 | Cc1cc(OC2CN(C(=O)c3nnc(-c4ccc(OC(F)F)cc4)o3)C2)ccc1CN(C)C [Example 43, (5-(4-(Difluoromethoxy)phenyl)-1,3,4-oxadiazol-2-yl)(3-(4-((dimethylamino)methyl)-3-methylphenoxy)azetidin-1-yl)methanone] |
| 10 | Cc1cc(OC2CN(C(=O)c3nnc(-c4ccc(Cl)cc4)o3)C2)ccc1CN(C)C [Example 44, (5-(4-Chlorophenyl)-1,3,4-oxadiazol-2-yl)(3-(4-((dimethylamino)methyl)-3-methylphenoxy)azetidin-1-yl)methanone] |
| 16 | O=C(c1nnc(-c2ccccc2)o1)N1CC(Oc2ccc(CN3CCCC3)c(C(F)(F)F)c2)C1 [Example 45, (5-Phenyl-1,3,4-oxadiazol-2-yl)(3-(4-(pyrrolidin-1-ylmethyl)-3-(trifluoromethyl)phenoxy)azetidin-1-yl)methanone] |
| 18 | COc1ccc(-c2nnc(C(=O)N3CC(Oc4ccc(CN5CCCC5)c(C(F)(F)F)c4)C3)o2)cc1 [Example 46, (5-(4-Methoxyphenyl)-1,3,4-oxadiazol-2-yl)(3-(4-(pyrrolidin-1-ylmethyl)-3-(trifluoromethyl)phenoxy)azetidin-1-yl)methanone] |
| 19 | COc1ccc(-c2nnc(C(=O)N3CC(Oc4ccc(CN(C)C)c(Cl)c4)C3)o2)cc1 [Example 47, (3-(3-Chloro-4-((dimethylamino)methyl)phenoxy)azetidin-1-yl)(5-(4-methoxyphenyl)-1,3,4-oxadiazol-2-yl)methanone] |
| 18 | CN(C)Cc1ccc(OC2CN(C(=O)c3nnc(-c4ccccc4)o3)C2)cc1Cl [Example 48, (3-(3-Chloro-4-((dimethylamino)methyl)phenoxy)azetidin-1-yl)(5-phenyl-1,3,4-oxadiazol-2-yl)methanone] |
| 37 | COc1ccc(-c2nnc(C(=O)N3CC(Oc4ccc(CN5CCN(C)CC5)c(Cl)c4)C3)o2)cc1 [Example 49, (3-(3-Chloro-4-((4-methylpiperazin-1-yl)methyl)phenoxy)azetidin-1-yl)(5-(4-methoxyphenyl)-1,3,4-oxadiazol-2-yl)methanone] |
| 35 | CN1CCN(Cc2ccc(OC3CN(C(=O)c4nnc(-c5ccccc5)o4)C3)cc2Cl)CC1 [Example 50, (3-(3-Chloro-4-((4-methylpiperazin-1-yl)methyl)phenoxy)azetidin-1-yl)(5-phenyl-1,3,4-oxadiazol-2-yl)methanone] |
| 19 | CN(C)Cc1ccc(OC2CN(C(=O)c3nnc(-c4ccc(OC(F)F)cc4)o3)C2)cc1F [Example 51, (5-(4-(Difluoromethoxy)phenyl)-1,3,4-oxadiazol-2-yl)(3-(4-((dimethylamino)methyl)-3-fluorophenoxy)azetidin-1-yl)methanone] |
| 24 | COc1ccc(-c2nnc(C(=O)N3CC(Oc4ccc(CN5CCCC5)c(OC)c4C)C3)o2)cc1 [Example 52, (3-(3-Methoxy-2-methyl-4-(pyrrolidin-1-ylmethyl)phenoxy)azetidin-1-yl)(5-(4-methoxyphenyl)-1,3,4-oxadiazol-2-yl)methanone] |

| IC50 [nM] | SMILES |
| --- | --- |
| 28 | CNCc1ccc(OC2CN(C(=O)c3nnc(-c4ccccc4)o3)C2)cc1C [Example 53, (3-(3-Methyl-4-((methylamino)methyl)phenoxy)azetidin-1-yl)(5-phenyl-1,3,4-oxadiazol-2-yl)methanone] |
| 31 | CNCc1ccc(OC2CN(C(=O)c3nnc(-c4ccc(OC)cc4)o3)C2)c(C)c1 [Example 54, (5-(4-Methoxyphenyl)-1,3,4-oxadiazol-2-yl)(3-(2-methyl-4-((methylamino)methyl)phenoxy)azetidin-1-yl)methanone] |
| 22 | COc1ccc(-c2nnc(C(=O)N3CC(Oc4ccc(CN5CC(OC)C5)cc4)C3)o2)cc1 [Example 55, (3-(4-((3-Methoxyazetidin-1-yl)methyl)phenoxy)azetidin-1-yl)(5-(4-methoxyphenyl)-1,3,4-oxadiazol-2-yl)methanone] |
| 13 | COc1ccc(-c2nnc(C(=O)N3CC(Oc4ccc(CN5CC(O)(C6CC6)C5)cc4)C3)o2)cc1 [Example 56, (3-(4-((3-Cyclopropyl-3-hydroxyazetidin-1-yl)methyl)phenoxy)azetidin-1-yl)(5-(4-methoxyphenyl)-1,3,4-oxadiazol-2-yl)methanone] |
| 18 | COC1CN(Cc2ccc(OC3CN(C(=O)c4nnc(-c5ccccc5)o4)C3)c(Cl)c2)C1 [Example 57, (3-(2-Chloro-4-((3-methoxyazetidin-1-yl)methyl)phenoxy)azetidin-1-yl)(5-phenyl-1,3,4-oxadiazol-2-yl)methanone] |
| 29 | O=C(c1nnc(-c2ccccc2)o1)N1CC(Oc2ccc(CN3CC(O)C3)cc2Cl)C1 [Example 58, (3-(2-Chloro-4-((3-hydroxyazetidin-1-yl)methyl)phenoxy)azetidin-1-yl)(5-phenyl-1,3,4-oxadiazol-2-yl)methanone] |
| 11 | COc1ccc(-c2nnc(C(=O)N3CC(Sc4ccc(CN5CCCC5)cc4)C3)o2)cc1 [Example 59, (5-(4-Methoxyphenyl)-1,3,4-oxadiazol-2-yl)(3-(4-(pyrrolidin-1-ylmethyl)phenylthio)azetidin-1-yl)methanone] |
| 19 | CN(C)Cc1ccc(SC2CN(C(=O)c3nnc(-c4ccccc4)o3)C2)cc1 [Example 60, (3-(4-((Dimethylamino)methyl)phenylthio)azetidin-1-yl)(5-phenyl-1,3,4-oxadiazol-2-yl)methanone] |
| 22 | COCCN(C)Cc1ccc(SC2CN(C(=O)c3nnc(-c4ccccc4)o3)C2)cc1 [Example 61, (3-(4-(((2-Methoxyethyl)(methyl)amino)methyl)phenylthio)azetidin-1-yl)(5-phenyl-1,3,4-oxadiazol-2-yl)methanone hydrochloride] |
| 13 | COC1CN(Cc2ccc(SC3CN(C(=O)c4nnc(-c5ccccc5)o4)C3)cc2)C1 [Example 62, (3-(4-((3-Methoxyazetidin-1-yl)methyl)phenylthio)azetidin-1-yl)(5-phenyl-1,3,4-oxadiazol-2-yl)methanone] |
| 23 | CNCc1ccc(SC2CN(C(=O)c3nnc(-c4ccccc4)o3)C2)cc1 [Example 63, (3-(4-((Methylamino)methyl)phenylthio)azetidin-1-yl)(5-phenyl-1,3,4-oxadiazol-2-yl)methanone hydrochloride] |
| 12 | CN(Cc1ccc(SC2CN(C(=O)c3nnc(-c4ccccc4)o3)C2)cc1)C1CCOCC1 [Example 64] |
| 20 | CN(Cc1ccc(SC2CN(C(=O)c3nnc(-c4ccccc4)o3)C2)cc1)CC1CCOC1 (centres unmarked) [Example 65, (3-(4-((Methyl((tetrahydrofuran-3-yl)methyl)amino)methyl)phenylthio)azetidin-1-yl)(5-phenyl-1,3,4-oxadiazol-2-yl)methanone] |
| 10 | O=C(c1nnc(-c2ccccc2)o1)N1CC(Sc2ccc(CNC3CC3)cc2)C1 [Example 66, (3-(4-((Cyclopropylamino)methyl)phenylthio)azetidin-1-yl)(5-phenyl-1,3,4-oxadiazol-2-yl)methanone] |
| 23 | O=C(c1nnc(-c2ccccc2)o1)N1CC(Sc2ccc(CN3CC(CO)C3)cc2)C1 [Example 67, (3-(4-((3-(Hydroxymethyl)azetidin-1-yl)methyl)phenylthio)azetidin-1-yl)(5-phenyl-1,3,4-oxadiazol-2-yl)methanone] |
| 21 | O=C(c1nnc(-c2ccccc2)o1)N1CC(Oc2ccc(CN3CC(C(F)F)C3)cc2)C1 [Example 68, (3-(4-((3-(Difluoromethyl)azetidin-1-yl)methyl)phenoxy)azetidin-1-yl)(5-phenyl-1,3,4-oxadiazol-2-yl)methanone] |
| 22 | Cc1cc(OC2CN(C(=O)c3nnc(-c4ccccc4)o3)C2)ccc1CN1CCC(C)(CO)CC1 [Example 69] |
